Laboratory results: US11485742B2, “2-azaspiro[3.4]octane derivatives as M4 agonists” (NOVARTIS AG, priority 2019, dated 2022)

Key:
[1] = target: T1, human cloned CHRM2 receptor (Homo sapiens, UniProt P08172); assay: CHRM2 Ca++ Flux Assay (M2_CHO cells, agonist mode); assay type: cell-based; conditions: M2 CHO cells; for EC50: agonist mode, geometric mean if tested more than once, read-out: M2 FDSS EC50; for Emax: Percent Activity (PA) measured to EC100 of Carbachol, read-out: M2 FDSS PA %
T1 construct: expressed in transfected cells; host or cells: CHO-K1 (M2_CHO)
T1 sequence (P08172 1-466): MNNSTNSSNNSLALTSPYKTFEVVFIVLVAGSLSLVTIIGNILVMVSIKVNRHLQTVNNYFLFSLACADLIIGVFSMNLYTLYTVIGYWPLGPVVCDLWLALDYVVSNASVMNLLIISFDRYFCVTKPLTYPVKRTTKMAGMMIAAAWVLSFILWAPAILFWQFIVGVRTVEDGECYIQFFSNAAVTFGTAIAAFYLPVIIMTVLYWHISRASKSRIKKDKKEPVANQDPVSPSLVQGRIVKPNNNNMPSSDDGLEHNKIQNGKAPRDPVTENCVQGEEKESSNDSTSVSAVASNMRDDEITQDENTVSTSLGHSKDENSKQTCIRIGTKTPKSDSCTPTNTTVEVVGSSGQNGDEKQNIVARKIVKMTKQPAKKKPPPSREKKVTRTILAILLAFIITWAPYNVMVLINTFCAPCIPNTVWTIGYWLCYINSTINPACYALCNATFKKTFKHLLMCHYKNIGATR
Outline: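 CHO-K1 cells stably expressing human CHRM2 were plated overnight at 12K cells/well and loaded with Ca++ dye for 1–2 h. They were then held 60 minutes in HBSS −Ca/−Mg, 20 mM HEPES, 2.5 mM probenecid, 20 μM ATP. Agonist-mode Ca++ flux was read over 3 minutes. Four-parameter fits of triplicates gave percent activity relative to carbachol EC100.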

[2] = target: T2, human cloned CHRM4 receptor (Homo sapiens, UniProt P08173); assay: CHRM4 Ca++ Flux Assay (M4_CHO cells, agonist mode); assay type: cell-based; conditions: for Emax: Percent Activity (PA), read-out: M4 FDSS PA %; for EC50: geometric mean if tested more than once, read-out: M4 FDSS EC50
T2 construct: expressed in transfected cells; host or cells: CHO-K1 (M4_CHO)
T2 sequence (P08173 1-479): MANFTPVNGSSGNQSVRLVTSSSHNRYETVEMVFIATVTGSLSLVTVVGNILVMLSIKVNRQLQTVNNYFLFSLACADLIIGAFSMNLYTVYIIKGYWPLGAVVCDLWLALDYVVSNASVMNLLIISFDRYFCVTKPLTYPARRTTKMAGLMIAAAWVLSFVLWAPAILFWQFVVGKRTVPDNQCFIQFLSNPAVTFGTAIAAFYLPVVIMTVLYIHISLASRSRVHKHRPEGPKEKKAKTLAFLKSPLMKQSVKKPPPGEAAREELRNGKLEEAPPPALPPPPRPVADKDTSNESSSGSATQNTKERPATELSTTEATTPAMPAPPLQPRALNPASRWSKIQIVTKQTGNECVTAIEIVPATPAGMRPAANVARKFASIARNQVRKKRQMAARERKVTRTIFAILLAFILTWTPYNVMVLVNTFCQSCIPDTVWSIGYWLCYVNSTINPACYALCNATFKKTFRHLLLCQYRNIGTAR
Outline: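 CHO-K1 cells stably expressing human M4 were dye-loaded, then held 60 min at RT in Ca/Mg-free HBSS buffer with 20 μM ATP. Ca++ traces were recorded over 3 min after an 11-point compound series in triplicate, agonist mode, with a four-parameter fit. Percent activity is relative to the carbachol EC100; repeat tests are geometric means.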

Row | EC50 [1] | Emax [1] | Emax [2] | EC50 [2] | SMILES
1 | 1240 nM | 18% | 73% | 96 nM | COc1ccccc1C1CCN([C@@H]2COC3(C2)CN(c2nncs2)C3)CC1 [Example 5R, (S)-7-(4-(2-methoxyphenyl)piperidin-1-yl)-2-(1,3,4-thiadiazol-2-yl)-5-oxa-2-azaspiro[3.4]octane]
2 | 4600 nM | 23% | 69% | 197 nM | COCCOc1ccc(F)cc1C1CCN([C@@H]2COC3(C2)CN(c2nncs2)C3)CC1 [Example 5S, (S)-7-(4-(5-fluoro-2-(2-methoxyethoxy)phenyl)piperidin-1-yl)-2-(1,3,4-thiadiazol-2-yl)-5-oxa-2-azaspiro[3.4]octane]
3 | 20000 nM | 35% | 61% | 208 nM | COc1cc(F)ccc1C1CCN([C@@H]2COC3(C2)CN(c2nncs2)C3)CC1 [Example 5T, (S)-7-(4-(4-fluoro-2-methoxyphenyl)piperidin-1-yl)-2-(1,3,4-thiadiazol-2-yl)-5-oxa-2-azaspiro[3.4]octane]
4 | 483 nM | 17% | 67% | 238 nM | CC(C)(O)COc1ccc(F)cc1C1CCN([C@@H]2COC3(C2)CN(c2nncs2)C3)CC1 [Example 5U, (S)-1-(2-(1-(2-(1,3,4-thiadiazol-2-yl)-5-oxa-2-azaspiro[3.4]octan-7-yl)piperidin-4-yl)-4-fluorophenoxy)-2-methylpropan-2-ol]
